The conditions of this data set: initial risperidone 15 mg/mL, control value = solubility of risperidone.

The structures appear in SMILES notation. Like-named read-outs stand apart in the source and are kept apart here.

Protocol: The resin and risperidone were added to either water, citrate-phosphate buffer at pH 5.93 or a 1.7% gelatin solution (Table 1a). The initial concentration of risperidone in the slurries was 15 mg/mL. The control consisted of risperidone in each of the three aqueous media.
Each slurry was placed into centrifuge tubes, capped and mixed with a Burrell Wrist action shaker model 75 for 24 hours. After 24 hours, the slurry was centrifuged at a relative centrifugal force of 38,724 g for 18 minutes. The supernatant was collected, filtered through a 0.45 μl nylon filter and assayed for risperidone by an isocratic HPLC method. The concentration of drug present in the supernatant represented the amount of unbound or “free” risperidone.

Take `Cc1nc2n(c(=O)c1CCN1CCC(c3noc4cc(F)ccc34)CC1)CCCC2` [Risperidone (Control), risperidone]: the “Concentration of Risperidone in Supernatant after 24 Hours Mixing” value was determined as 1062.1 µg/mL (1.7% Gelatin), 4603.6 µg/mL (Citrate-Phosphate Buffer (pH 5.93)) and 85.82 µg/mL (Purified Water).

Values taken from US20050036977A1, “Taste-masked resinate and preparation thereof” (priority 2003, published 2005).
